Assay results taken from patent US7968720B2, “Secondary amines as renin inhibitors” (Actelion Pharmaceuticals Ltd., priority 2006, dated 2011).
Counter-ions that a name gives are not always drawn.

Biological target: T1, recombinant human renin (Homo sapiens, UniProt P00797)
T1 sequence (P00797 67-406): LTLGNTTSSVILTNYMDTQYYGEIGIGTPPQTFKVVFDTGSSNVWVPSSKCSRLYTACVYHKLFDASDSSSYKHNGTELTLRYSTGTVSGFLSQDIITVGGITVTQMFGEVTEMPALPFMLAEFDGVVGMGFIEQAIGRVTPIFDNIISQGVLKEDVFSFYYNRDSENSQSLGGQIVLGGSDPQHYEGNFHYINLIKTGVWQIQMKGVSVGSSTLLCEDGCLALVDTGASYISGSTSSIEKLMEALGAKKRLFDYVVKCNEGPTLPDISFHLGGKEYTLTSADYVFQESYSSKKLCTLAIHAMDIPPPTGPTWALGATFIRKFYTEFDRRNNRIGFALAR
Assay: Primary renin inhibition assay: IC50 in buffer, 384 well MTP (AngI measured by EIA)
Assay type: biochemical
Conditions: human tetradecapeptide (1-14) substrate, incubated at 37° C. for 3 h, AngI quantified by EIA
Method: 1. Enzyme Immuno Assay (EIA) to Estimate AngI Accumulation and Renin Inhibition
1.1 Preparation of AngI-BSA Conjugate
1.3 mg (1 μmol) of AngI [1-10 (Bachem, H-1680)] and 17 mg (0.26 μmol) of BSA (Fluka, 05475) were dissolved in 4 mL of 0.1M phosphate buffer, pH 7.4, after which 2 mL of a 1:100 dilution of glutaraldehyde in H2O (Sigma G-5882) was added dropwise. The mixture was incubated overnight at 4° C., then dialyzed against 2 liters of 0.9% NaCl, twice for 4 h at rt, followed by dialysis against 2 liters of PBS 1× overnight at rt. The solution was then filtered with a Syringe filter, 0.45 μm (Nalgene, Cat. No. 194-2545). The conjugate can be stored in polypropylene tubes in 0.05% sodium azide at 4° C. for at least 12 months.
1.2 Preparation of BSA-AngI Coated MTP
Microtiter plates (MPT384, MaxiSorp™, Nunc) were incubated overnight at 4° C. with 80 μl of AngI (1-10)/BSA conjugate, diluted 1:100'000 in PBS 1× in a teflon beaker (exact dilution dependent on batch of conjugate), emptied, filled with 90 μl of blocking solution [0.5% BSA (Sigma A-2153) in PBS 1×, 0.02% NaN3], and incubated for at least 2 h at rt, or overnight at 4° C. 96 well MTP (MaxiSorp™, Nunc) were coated with 200 μl conjugate and blocked with 250 μl blocking solution as above, except that the blocking solution contained 3% BSA. The plates can be stored in blocking solution at 4° C. for 1 month.
1.3 AngI-EIA in 384 Well MTP
The AngI (1-10)/BSA coated MTP were washed 3 times with wash buffer (PBS 1×, 0.01% Tween 20) and filled with 75 μl of primary antibody solution (anti-AngI antiserum, pre-diluted 1:10 in horse serum), diluted to a final concentration of 1:100'000 in assay buffer (PBS 1×, 1 mM EDTA, 0.1% BSA, pH 7.4). 5 μl of the renin reaction (or standards in assay buffer) (see below) were added to the primary antibody solution and the plates were incubated overnight at 4° C. After the incubation the plates were washed 3 times with wash buffer and incubated with secondary antibody [anti-rabbit IgG, linked to horseradish peroxidase (Amersham Bioscience, NA 934V), diluted 1:2'000 in wash buffer] for 2 h at rt. The plates were washed 3 times with wash buffer and then incubated for 1 h at rt with substrate solution [1.89 mM ABTS (2,2′-azino-di-(3-ethyl-benzthiazolinsulfonate)] (Roche Diagnostics, 102 946) and 2.36 mM H2O2 [30%, (Fluka, 95300] in substrate buffer (0.1M sodium acetate, 0.05M sodium dihydrogen phosphate, pH 4.2). The OD of the plate was read at 405 nm in a microplate reader (FLUOStar Optima from BMG). The production of AngI during the renin reaction was quantified by comparing the OD of the sample with the OD of a standard curve of AngI(1-10), measured in parallel.
2. Primary Renin Inhibition Assay: IC50 in Buffer, 384 Well MTP
The renin assay was adapted from an assay described before (Fischli W. et al., Hypertension, 1991, 18:22-31) and consists of two steps: in the first step, recombinant human renin is incubated with its substrate (commercial human tetradecapeptide renin substrate) to create the product Angiotensin I (AngI). In the second step, the accumulated AngI is measured by an immunological assay (enzyme immuno assay, EIA). The detailed description of this assay is found below. The EIA is very sensitive and well suited for renin activity measurements in buffer or in plasma. Due to the low concentration of renin used in this assay (2 fmol per assay tube or 10 pM) it is possible to measure inhibitor affinities in this primary assay down to low pM concentration.
Recombinant human renin (3 pg/μl) in assay buffer (PBS 1×, 1 mM EDTA, 0.1% BSA, pH 7.4), human tetradecapeptide (1-14) substrate (Bachem, M-1120) [5 μM in 10 mM HCl], hydroxyquinoline sulfate (Fluka, 55100) [30 mM in H2O] and assay buffer were premixed at 4° C. at a ratio of 100:30:10:145. 47.5 μl per well of this premix was transferred into polypropylene plates (MTP384, Nunc). […]

IC50 [nM] | Compound
0.39 | CNC(=O)OCCc1ccc(Cl)c(CN(C(=O)[C@H]2CNCC[C@@H]2c2ccc(N3CC[C@@H](Oc4c(Cl)cc(C)cc4Cl)C3)nc2)C2CC2)c1 [Example 110, Methyl-carbamic Acid 2-{4-chloro-3-[(cyclopropyl-{(3′R,4′S)-6-[(R)-3-(2,6-dichloro-4-methyl-phenoxy)-pyrrolidin-1-yl]-1′,2′,3′,4′,5′,6′-hexahydro-[3,4′]bipyridinyl-3′-carbonyl}-amino)-methyl]-phenyl}-ethyl Ester]
0.22 | O=C([C@H]1CNCC[C@@H]1c1ccc(OCc2cc(-c3c(F)ccc(F)c3Cl)no2)cc1)N(Cc1cc(CNCC(F)F)ccc1Cl)C1CC1 [Example 77, (3R,4S)-4-{4-[3-(2-Chloro-3,6-difluoro-phenyl)isoxazol-5-ylmethoxy]-phenyl}-piperidine-3-carboxylic acid {2-chloro-5-[(2,2-difluoro-ethylamino)-methyl]-benzyl}-cyclopropyl-amide]
0.2 | COCCCc1ccc(Cl)c(CN(C(=O)C2=C(c3ccc(OCCOc4c(Cl)cc(C)cc4Cl)cc3)C[C@@H]3CNC[C@H]2N3)C2CC2)c1 [Example 4, (1R,5S)-7-{4-[2-(2,6-Dichloro-4-methyl-phenoxy)-ethoxy]-phenyl}-3,9-diaza-bicyclo[3.3.1]non-6-ene-6-carboxylic acid [2-chloro-5-(3-methoxy-propyl)-benzyl]-cyclopropyl-amide]
0.26 | COCCc1ccc(Cl)c(CN(C(=O)[C@@H]2[C@@H](c3ccc(OCc4cc(-c5c(F)ccc(F)c5Cl)no4)cc3)C[C@@H]3CC[C@H]2N3)C2CC2)c1 [Example 60, (1R,2R,3S,5S)-3-{4-[3-(2-Chloro-3,6-difluoro-phenyl)isoxazol-5-ylmethoxy]-phenyl}-8-aza-bicyclo[3.2.1]octane-2-carboxylic acid [2-chloro-5-(2-methoxy-ethyl)benzyl]-cyclopropyl-amide]
0.14 | COCCc1ccc(Cl)c(CN(C(=O)[C@@H]2[C@@H](c3ccc(OCCOc4c(Cl)cc(C)cc4Cl)cc3)C[C@@H]3CC[C@H]2N3)C2CC2)c1 [Example 26, (1R,2R,3S,5S)-3-{4-[2-(2,6-Dichloro-4-methyl-phenoxy)-ethoxy]-phenyl}-8-aza-bicyclo[3.2.1]octane-2-carboxylic acid [2-chloro-5-(2-methoxy-ethyl)-benzyl]-cyclopropyl-amide]
0.2 | COCCCc1ccc(Cl)c(CN(C(=O)C2=C(c3ccc(CCOc4c(Cl)cc(C)cc4Cl)cc3)C[C@@H]3CNC[C@H]2N3)C2CC2)c1 (racemic) [Example 1, (rac.)-(1R*,5S*)-7-{4-[2-(2,6-Dichloro-4-methyl-phenoxy)-ethyl]-phenyl}-3,9-diaza-bicyclo[3.3.1]non-6-ene-6-carboxylic acid [2-chloro-5-(3-methoxy-propyl)-benzyl]-cyclopropyl-amide]
0.3 | COCCCc1ccc(Cl)c(CN(C(=O)C2=C(c3ccc(OCCOc4c(Cl)cc(C)cc4Cl)cc3)C[C@@H]3CN(C(=N)N)C[C@H]2N3)C2CC2)c1 [Example 11, (1R,5S)-3-Carbamimidoyl-7-{4-[2-(2,6-dichloro-4-methyl-phenoxy)-ethoxy]-phenyl}-3,9-diaza-bicyclo[3.3.1]non-6-ene-6-carboxylic acid cyclopropyl-[2-chloro-5-(3-methoxy-propyl)-benzyl]-amide Hydrochloride Salt]
0.08 | CNC(=O)CCc1ccc(Cl)c(CN(C(=O)[C@H]2CNCC[C@@H]2c2ccc(OCc3cc(-c4c(F)ccc(F)c4Cl)no3)cc2)C2CC2)c1 [Example 102, (3R,4S)-4-{4-[3-(2-Chloro-3,6-difluoro-phenyl)isoxazol-5-ylmethoxy]-phenyl}-piperidine-3-carboxylic Acid [2-chloro-5-(2-methylcarbamoyl-ethyl)benzyl]-cyclopropyl-amide]
0.38 | Cc1cc(Cl)c(O[C@@H]2CCN(c3ccc([C@H]4CCNC[C@@H]4C(=O)N(Cc4cc(CNC(=O)C5CC5)ccc4Cl)C4CC4)cn3)C2)c(Cl)c1 [Example 93, (3′R,4′S)-6-[(R)-3-(2,6-Dichloro-4-methyl-phenoxy)-pyrrolidin-1-yl]-1′,2′,3′,4′,5′,6′-hexahydro-[3,4′]bipyridinyl-3′-carboxylic acid {2-chloro-5-[(cyclopropanecarbonyl-amino)-methyl]-benzyl}-cyclopropyl-amide]
0.24 | COCCCc1ccc(Cl)c(CN(C(=O)C2=C(c3ccc(OCc4cc(-c5c(F)ccc(F)c5Cl)no4)cc3)C[C@@H]3CN(C(C)=O)C[C@H]2N3)C2CC2)c1 [Example 50, (1R,5S)-3-Acetyl-7-{4-[3-(2-chloro-3,6-difluoro-phenyl)-isoxazol-5-ylmethoxy]-phenyl}-3,9-diaza-bicyclo[3.3.1]non-6-ene-6-carboxylic acid [2-chloro-5-(3-methoxy-propyl)benzyl]-cyclopropyl-amide]
0.1 | COCCCc1cc(CN(C(=O)C2=C(c3ccc(OCc4cc(-c5c(F)ccc(F)c5Cl)no4)cc3)CCNC2)C2CC2)c(Cl)cn1 [Example 34, 4-{4-[3-(2-Chloro-3,6-difluoro-phenyl)-isoxazol-5-ylmethoxy]-phenyl}-1,2,5,6-tetrahydro-pyridine-3-carboxylic acid [5-chloro-2-(3-methoxy-propyl)-pyridin-4-ylmethyl]-cyclopropyl-amide]
0.8 | COCCCc1ccc(Cl)c(CN(C(=O)C2=C(c3ccc(OCCOc4c(Cl)cc(C)cc4Cl)cc3)C[C@@H]3CN(C(=O)NC4CC4)C[C@H]2N3)C2CC2)c1 [Example 13, (1R,5S)-7-{4-[2-(2,6-Dichloro-4-methyl-phenoxy)-ethoxy]-phenyl}-3,9-diaza-bicyclo[3.3.1]non-6-ene-3,6-dicarboxylic acid 3-cyclopropylamide 6-{cyclopropyl-[2-chloro-5-(3-methoxy-propyl)-benzyl]-amide}]
0.5 | COCCCc1ccc(Cl)c(CN(C(=O)C2=C(c3ccc(OCCOc4c(Cl)cc(C)cc4Cl)nc3)CCNC2)C2CC2)c1 [Example 18, 6-[2-(2,6-Dichloro-4-methyl-phenoxy)-ethoxy]-1′,2′,5′,6′-tetrahydro-[3,4′]bipyridinyl-3′-carboxylic acid [2-chloro-5-(3-methoxy-propyl)-benzyl]-cyclopropyl-amide]
0.63 | Cc1cc(Cl)c(O[C@@H]2CCN(c3ccc([C@H]4CCNC[C@@H]4C(=O)N(Cc4cc(CNC(=O)CC(F)(F)F)ccc4Cl)C4CC4)cn3)C2)c(Cl)c1 [Example 67, (3′R,4′S)-6-[(R)-3-(2,6-Dichloro-4-methyl-phenoxy)-pyrrolidin-1-yl]-1′,2′,3′,4′,5′,6′-hexahydro-[3,4′]bipyridinyl-3′-carboxylic acid {2-chloro-5-[(3,3,3-trifluoro-propionylamino)-methyl]-benzyl}-cyclopropyl-amide]
